Data from patent US20130172320A1, “PYRIDO [4,3-B] INDOLE AND PYRIDO [3,4-B] INDOLE DERIVATIVES AND METHODS OF USE” (priority 2010, published 2013).

Experiments:
[1] = target: T1, human recombinant adrenergic α2A receptor (Homo sapiens, UniProt P08913); assay: Adrenergic α2A radioligand binding ([3H]MK-912); conditions: compound at 0.1 μM; read-out: Percentage inhibition of ligand binding, Adrenergic (0.1 μM) a2A
T1 construct: expressed in transfected cells; host or cells: insect Sf9 cells
T1 sequence (P08913 1-465): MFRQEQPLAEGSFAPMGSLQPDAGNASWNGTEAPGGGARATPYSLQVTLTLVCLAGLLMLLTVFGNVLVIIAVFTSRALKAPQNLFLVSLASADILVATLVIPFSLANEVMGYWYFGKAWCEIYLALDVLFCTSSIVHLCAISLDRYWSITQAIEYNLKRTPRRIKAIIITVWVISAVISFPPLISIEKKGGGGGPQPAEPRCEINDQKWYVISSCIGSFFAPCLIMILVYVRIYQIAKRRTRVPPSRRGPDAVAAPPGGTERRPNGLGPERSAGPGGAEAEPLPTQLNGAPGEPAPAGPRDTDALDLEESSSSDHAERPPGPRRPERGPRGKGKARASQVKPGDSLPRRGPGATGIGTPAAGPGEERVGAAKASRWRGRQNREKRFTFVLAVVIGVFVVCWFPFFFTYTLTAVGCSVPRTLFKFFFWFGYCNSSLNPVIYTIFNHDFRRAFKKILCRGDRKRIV
Procedure: To evaluate in radioligand binding assays the activity of compounds of the invention, human recombinant adrenergic α2A receptor expressed in insect Sf9 cells (Uhlen, S. et al, J. Pharmacol. Exp. Ther. 271:1558, 1994) in a modified Tris-HCl buffer (50 mM Tris-HCl, pH 7.4, 12.5 mM MgCl2, 2 mM EDTA) was used. Compounds of invention were incubated with 1 nM […] for 60 min at 25° C. MK912 is (2S-trans)-1,3,4,5′,6,6′,7,12b-octahydro-1′,3′-dimethyl-spiro[2H-benzofuro[2,3-a]quinolizine-2,4′(111)-pyrimidin]-2′(3′H)-one hydrochloride Non-specific binding was estimated in the presence of 10 μM WB-4101 (2-(2,6-Dimethoxyphenoxyethyl)aminomethyl-1,4-benzodioxane hydrochloride). Receptor proteins were filtered and washed, the filters were then counted to determine [^3H]MK-912 specifically bound. Compounds were screened at 1 μM or lower, using 1% DMSO as vehicle. Biochemical assay results are presented as the percent inhibition of specific binding in Table 3.

[2] = target: human recombinant dopamine D2L receptor (Homo sapiens, UniProt P14416); assay: Dopamine D2L radioligand binding ([3H]Spiperone); conditions: compound at 0.2 μM; read-out: Percentage inhibition of ligand binding, Dopamine (0.2 μM) D2L
Sequence of human recombinant dopamine D2L receptor (P14416 whole entry): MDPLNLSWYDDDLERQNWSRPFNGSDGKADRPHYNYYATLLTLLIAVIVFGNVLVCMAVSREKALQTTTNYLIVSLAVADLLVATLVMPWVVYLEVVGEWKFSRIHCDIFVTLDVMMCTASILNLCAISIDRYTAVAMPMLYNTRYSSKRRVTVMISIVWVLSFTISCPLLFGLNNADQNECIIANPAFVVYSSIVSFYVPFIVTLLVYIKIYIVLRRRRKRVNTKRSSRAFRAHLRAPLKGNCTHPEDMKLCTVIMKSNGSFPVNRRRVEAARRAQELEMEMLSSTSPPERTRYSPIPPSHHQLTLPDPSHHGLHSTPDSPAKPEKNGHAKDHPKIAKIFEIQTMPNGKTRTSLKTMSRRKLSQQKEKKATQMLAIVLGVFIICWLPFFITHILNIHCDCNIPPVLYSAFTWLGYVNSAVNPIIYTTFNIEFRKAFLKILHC
Procedure: To evaluate in radioligand binding assays the activity of compounds of the invention, human recombinant dopamine D2L receptor expressed in Chinese hamster ovary (CHO) cells (Grandy, D. et al, Proc. Natl. Acad. Sci. USA. 86:9762, 1989; Hayes, G. et al, Mol. Endocrinol. 6:920, 1992) in a modified Tris-HCl buffer (50 mM Tris-HCl, pH 7.4, 1.4 mM Ascorbic Acid, 0.001% BSA, 150 mM NaCl) was used. Compounds of the invention were incubated with 0.16 nM [^3H]Spiperone for 120 min at 25° C. Non-specific binding was estimated in the presence of 10 μM Haloperidol. Receptor proteins were filtered and washed, the filters were then counted to determine [^3H]Spiperone specifically bound. Compounds were screened at 1 μM or lower, using 1% DMSO as vehicle. Biochemical assay results are presented as the percent inhibition of specific binding in Table 3.

[3] = target: T2, human recombinant serotonin (5-Hydroxytryptamine) 5-HT2C receptor (Homo sapiens, UniProt P28335); assay: Serotonin 5-HT2C radioligand binding ([3H]Mesulergine); conditions: compound at 0.1 μM; read-out: Percentage inhibition of ligand binding, Serotonin (0.1 μM) 5-HT2C
T2 construct: expressed in transfected cells; host or cells: Chinese hamster ovary (CHO) K1 cells
T2 sequence (P28335 33-458): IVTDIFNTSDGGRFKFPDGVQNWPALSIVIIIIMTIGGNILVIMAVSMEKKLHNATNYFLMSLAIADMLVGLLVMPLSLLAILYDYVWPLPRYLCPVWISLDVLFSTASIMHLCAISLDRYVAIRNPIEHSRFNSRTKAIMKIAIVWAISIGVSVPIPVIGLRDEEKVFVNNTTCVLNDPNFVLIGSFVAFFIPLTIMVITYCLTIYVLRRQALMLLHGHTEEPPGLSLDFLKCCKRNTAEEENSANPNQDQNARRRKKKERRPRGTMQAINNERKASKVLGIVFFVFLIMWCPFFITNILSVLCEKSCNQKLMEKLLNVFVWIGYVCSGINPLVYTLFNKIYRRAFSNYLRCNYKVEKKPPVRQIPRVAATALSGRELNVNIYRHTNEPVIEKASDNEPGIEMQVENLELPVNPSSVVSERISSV
Procedure: To evaluate in radioligand binding assays the activity of compounds of the invention, human recombinant serotonin (5-Hydroxytryptamine) 5-HT2C receptor expressed in Chinese hamster ovary (CHO) K1 cells (Wolf, W. et al, J. Neurochem. 69:1449, 1997) in a modified Tris-HCl buffer (50 mM Tris-HCl, pH 7.4, 0.1% Ascorbic Acid, 10 μM Pargyline) was used. Compounds of the invention were incubated with 1 nM [^3H]Mesulergine for 60 min at 25° C. Non-specific binding was estimated in the presence of 1 μM Mianserin. Receptor proteins were filtered and washed, the filters were then counted to determine [^3H]Mesulergine specifically bound. Compounds were screened at 1 μM or lower, using 1% DMSO as vehicle. Biochemical assay results are presented as the percent inhibition of specific binding in Table 4.

[4] = target: human recombinant serotonin (5-Hydroxytryptamine) 5-HT7 receptor (Homo sapiens, UniProt P34969); assay: Serotonin 5-HT7 radioligand binding ([3H]LSD); conditions: compound at 0.1 μM; read-out: Percentage inhibition of ligand binding, Serotonin (0.1 μM) 5-HT7
Sequence of human recombinant serotonin (5-Hydroxytryptamine) 5-HT7 receptor (P34969 whole entry): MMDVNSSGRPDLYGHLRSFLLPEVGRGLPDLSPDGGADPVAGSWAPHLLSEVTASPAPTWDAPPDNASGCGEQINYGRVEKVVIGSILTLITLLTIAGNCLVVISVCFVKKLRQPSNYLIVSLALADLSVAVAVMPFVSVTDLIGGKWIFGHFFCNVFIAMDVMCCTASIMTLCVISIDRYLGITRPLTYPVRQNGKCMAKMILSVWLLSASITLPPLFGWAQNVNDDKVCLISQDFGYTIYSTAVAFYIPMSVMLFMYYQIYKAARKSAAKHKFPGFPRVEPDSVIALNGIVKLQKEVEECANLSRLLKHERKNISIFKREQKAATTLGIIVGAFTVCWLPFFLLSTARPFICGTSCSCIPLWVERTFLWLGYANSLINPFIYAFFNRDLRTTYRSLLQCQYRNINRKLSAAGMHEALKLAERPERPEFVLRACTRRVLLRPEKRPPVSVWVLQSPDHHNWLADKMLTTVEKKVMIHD
Procedure: To evaluate in radioligand binding assays the activity of compounds of the invention, human recombinant serotonin (5-Hydroxytryptamine) 5-HT7 receptor expressed in Chinese hamster ovary (CHO) cells (Roth, B. et al, J. Pharmacol. Exp. Ther. 268:1403, 1994; Shen, Y. et al, J. Biol. Chem. 268:18200, 1993) in a modified Tris-HCl buffer (50 mM Tris-HCl, pH 7.4, 10 mM MgCl2, 0.5 mM EDTA) was used. Compounds of invention were incubated with 5.5 nM [^3H] Lysergic acid diethylamide (LSD) for 2 h at 25° C. Non-specific binding was estimated in the presence of 10 μM Serotonin (5-HT). Receptor proteins were filtered and washed, the filters were then counted to determine [^3H]LSD specifically bound. Compounds were screened at 1 μM or lower, using 1% DMSO as vehicle. Biochemical assay results are presented as the percent inhibition of specific binding in Table 4.

Row | SMILES | inhibition at 0.1 µM [1] [%] | inhibition at 0.2 µM [2] [%] | inhibition at 0.1 µM [3] [%] | inhibition at 0.1 µM [4] [%]
1 | C#CCC1(C)CN(C)Cc2c1n(C)c1ccc(C)cc21 (centres unmarked) [Compound 47, 2,4,5,8-tetramethyl-4-(prop-2-ynyl)-2,3,4,5-tetrahydro-1H-pyrido[4,3-b]indole] | 15 | 5 | 19 | 13
2 | Cc1ccc2c(c1)c1c(n2C)C(C)(CCc2nc(-c3ccccc3)cs2)CN(C)C1 (centres unmarked) [Compound 48] | 2 | -5 | 25 | 17
